Values after ≈ are worked out from the molar mass of the structure shown.

In this experiment the test system is HepG2. The experiment is described as follows: Cytotoxicity against human HepG2 cells after 24 hrs by CCK-8 assay. Type of experiment: functional, cell-based. To be noted: HepG2, 24 h.
As to `CC(=O)OC[C@H]1O[C@@H](O[C@H]2[C@H](O[C@H]3[C@H](O)C[C@]4(C)[C@H]5C[C@@H](O)[C@@H]6[C@@H](/C(C)=C\CC=C(C)C)CC[C@@]6(C)[C@]5(C)CC[C@H]4C3(C)C)O[C@H](CO)[C@@H](O)[C@@H]2O)[C@H](O)[C@@H](O)[C@@H]1O`, the IC50 (as a rule, the concentration that inhibits the measured activity by half) amounted to 40 µg/mL (≈ 48.5 µM).
Take `C=C(CCC=C(C)C)[C@H]1CC[C@]2(C)[C@@H]1[C@H](O)C[C@@H]1[C@@]3(C)C[C@@H](O)[C@H](O[C@@H]4O[C@H](CO)[C@@H](O)[C@H](O)[C@H]4O[C@@H]4O[C@H](COC(C)=O)[C@@H](O)[C@H](O)[C@H]4O)C(C)(C)[C@@H]3CC[C@]12C`: the IC50 turned out to be 38 µg/mL (≈ 46.1 µM).
`CC(C)=CCC[C@](C)(O)[C@H]1CC[C@]2(C)[C@@H]1[C@H](O)C[C@@H]1[C@@]3(C)CC[C@H](O[C@@H]4O[C@H](CO)[C@@H](O)[C@H](O)[C@H]4O[C@@H]4O[C@H](CO)[C@@H](O)[C@H](O)[C@H]4O)C(C)(C)[C@@H]3CC[C@]12C` displayed an IC50 of 54 µg/mL (≈ 68.8 µM).

The values above are taken from ChEMBL document CHEMBL3352475, “Novel dammarane saponins from Gynostemma pentaphyllum and their cytotoxic activities against HepG2 cells” (Bioorg Med Chem Lett, 2014).
